Source: publication PMC7311426, “An amphipathic peptide with antibiotic activity against multidrug-resistant Gram-negative bacteria” (Nature Communications, 2020)
≈ marks a conversion by molar mass, not a printed value. Read-outs that look alike come from different tables or passages of the source. Residues, ends and D or L forms follow the SMILES beside them.

How the values were obtained:
K. pneumoniae = assay: microbe, parasite or virus in culture
Experimental: (§1) Antimicrobial activity of arenicin-3 and its analogs was tested against a panel of bacterial and yeast strains by in vitro broth microdilution (BMD) assay with minimum inhibitory concentration (MIC) determination. Strains were purchased from American Type Culture Collection (ATCC) or obtained from clinical collaborators (full strain profiles provided in Supplementary Data 3). All peptides were prepared in Ringer’s acetate solution, and subsequently diluted fresh in water for each independent assay.
(§2) Assays were performed in Mueller Hinton broth (MHB; BD, Cat. No. 211443) for bacteria, and yeast extract-peptone dextrose (YPD; Sigma-Aldrich, Y1500) for yeast. The concentrations of the peptides and comparator antibiotics/antifungals in the assay wells ranged from either 128 or 64 μg mL^−1, to 0.06 or 0.03 μg mL^−1 as a 12-point dose response plated as a 2-fold dilution series across the wells of the plate in duplicate for each independent biological replicate, using a final cell density of 5 × 10^5 CFU mL^−1 and 2.5 × 10^3 CFU mL^−1 for bacteria and yeast respectively. Final assay volumes were 100 μL per well with MICs determined visually following 18-20 h incubation at 37 °C for bacteria, 24 h incubation at 35 °C for Candida albicans, and 24 h incubation at 35 °C with resazurin addition (0.006%; Sigma-Aldrich, Cat # R7017) for a further 3 h for Cryptococcus neoformans, without shaking. Additional bacterial and yeast susceptibility assays were performed in Cation-Adjusted Mueller Hinton Broth (CAMHB; BD, Cat No. 212322) and Roswell Park Memorial Institute (RPMI) 1640 culture medium (Life Technologies Australia, Cat No. 21870092), respectively, as recommended by CLSI guidelines (M07 11th ed[36] and M27 4th ed[37]). […] Agarose MICs were determined in MHB with 1% agarose (Bioline molecular grade; Cat no: BIO-41025; high purity, high gel strength). All experiments were performed a minimum of six replicates (n ≥ 6).

C. albicans = assay: microbe, parasite or virus in culture; conditions: 24 h
Experimental: as §1, §2

A. baumannii = assay: microbe, parasite or virus in culture
Experimental: as §1, §2

P. aeruginosa = assay: microbe, parasite or virus in culture
Experimental: as §1, §2

S. aureus = assay: microbe, parasite or virus in culture
Experimental: as §1, §2

[1] = tested on: human erythrocytes (HRBC); type: cell-based
E. coli ATCC 25922 = assay: microbe, parasite or virus in culture; type: cell-based, Escherichia coli; conditions: ATCC 25922
Experimental: Assays were performed in Mueller Hinton broth (MHB; BD, Cat. No. 211443) for bacteria, and yeast extract-peptone dextrose (YPD; Sigma-Aldrich, Y1500) for yeast. The concentrations of the peptides and comparator antibiotics/antifungals in the assay wells ranged from either 128 or 64 μg mL^−1, to 0.06 or 0.03 μg mL^−1 as a 12-point dose response plated as a 2-fold dilution series across the wells of the plate in duplicate for each independent biological replicate, using a final cell density of 5 × 10^5 CFU mL^−1 and 2.5 × 10^3 CFU mL^−1 for bacteria and yeast respectively. Final assay volumes were 100 μL per well with MICs determined visually following 18-20 h incubation at 37 °C for bacteria, 24 h incubation at 35 °C for Candida albicans, and 24 h incubation at 35 °C with resazurin addition (0.006%; Sigma-Aldrich, Cat # R7017) for a further 3 h for Cryptococcus neoformans, without shaking. Additional bacterial and yeast susceptibility assays were performed in Cation-Adjusted Mueller Hinton Broth (CAMHB; BD, Cat No. 212322) and Roswell Park Memorial Institute (RPMI) 1640 culture medium (Life Technologies Australia, Cat No. 21870092), respectively, as recommended by CLSI guidelines (M07 11th ed[36] and M27 4th ed[37]). […] However, for yeast it was determined that the YPD media was more reliable and robust between repeats and therefore MICs in this media are reported. […] Agarose MICs were determined in MHB with 1% agarose (Bioline molecular grade; Cat no: BIO-41025; high purity, high gel strength). All experiments were performed a minimum of six replicates (n ≥ 6).

[2] = tested on: HEK-293 human embryonic kidney cells; assay: in vitro
Experimental: (§3) HEK-293 human embryonic kidney cells (ATCC CRL-1573), HepG2 liver hepatocellular carcinoma cells (ATCC HB-8065), and HK-2 human kidney proximal tubule cells (ATCC CRL-2190) cell lines were purchased from ATCC. Cytotoxicity of arenicin-3 variants was determined using the Alamar Blue (resazurin; Sigma-Aldrich, Cat # R7017), with 1% FBS for HK-2 and 10% FBS for HEK-293, and HepG2[40]. Cells were seeded as 2000 cells per well in black wall clear bottom 384-well plates (Corning®, Costar®, Cat # 3712). The cells were incubated for 24 h at 37 °C, 5% CO2. Then peptides were added into each cell containing well. After 24 h incubation, 5 μM resazurin were added per well and incubated at 37 °C for 2 h. Then the fluorescence intensity (FI) was read using a Polarstar® Omega plate reader with excitation/emission 560/590 and CC50 values were determined using Prism 8 following curve fitting and applying the following equation: Percentageviability = (FITEST-FINegative/FIUNTREATED-FINegative)×100.
(§4) Hemolytic activity was measured against isolated human erythrocytes from anonymously donated fresh human blood. Isolated erythrocytes were adjusted to 1 × 10^9 blood cells mL^−1 in phosphate-buffered saline (PBS, pH 7.4), added to the wells of NUNC polypropylene round-bottom 96-well plates (Sigma-Aldrich, Cat # P6866) then up to 300 μg mL^−1 of compound was added per well and incubated for 3 h at 37 °C. Following incubation, samples were centrifuged at 3000 rpm for 20 min, and the supernatants, 100 μL, were carefully collected for measurement. The degree of hemolysis in the samples was determined by measurement of the absorption of the supernatants at 540 nm using the Polarstar-Omega plate reader. 1% Triton-X100 was used as positive control for inducing 100% hemolysis. HC10 and HC50 values were determined using Prism 8 following curve fitting. The use of human blood (sourced from the Australian Red Cross Blood Service) for hemolysis assays was approved by the University of Queensland Institutional Human Research Ethics Committee, Approval Number 2014000031. All in vitro toxicity assays were performed for two independent biological replicates as an 8-point dose response of 3-fold dilution series in triplicate with the highest test concentration of 300 μg mL^−1.

in vitro = conditions: human
Experimental: as §3, §4

[3] = tested on: HepG2 liver hepatocellular carcinoma cells; assay: in vitro
Experimental: as §3, §4

[4] = tested on: HK-2 human kidney proximal tubule cells; assay: in vitro
Experimental: as §3, §4

E. coli = assay: microbe, parasite or virus in culture
Experimental: as §1, §2

[5] = K. pneumoniae ATCC 13883 type strain (polymyxin/colistin heteroresistant), MHB, mode of 6 replicates
[6] = E. coli ATCC 25922 FDA control strain, MHB, mode of 6 independent biological replicates
[7] = A. baumannii ATCC 19636 type strain, MHB, mode of 6 replicates
[8] = P. aeruginosa ATCC 27853 control strain, MHB, mode of 6 replicates
[9] = S. aureus ATCC 25923 MSSA, MHB, mode of 6 replicates

SMILES	BMD MIC (K. pneumoniae) [µg/mL]	BMD MIC (C. albicans) [µg/mL]	BMD MIC (A. baumannii) [µg/mL]	BMD MIC (P. aeruginosa) [µg/mL]	BMD MIC (S. aureus) [µg/mL]	Heamolysis HC10, Mean [1] [µg/mL]	CC50 HEK293, Mean [2] [µg/mL]	CC50 at 24 h (in vitro; HEK-293 cells) [µg/mL]	CC50 at 24 h (in vitro; HK-2 cells) [µg/mL]	CC50 at 24 h (in vitro; HepG2 cells) [µg/mL]	CC50 HepG2 [3] [µg/mL]	CC50 HepG2, Mean [3] [µg/mL]	CC50 HK2 [4] [µg/mL]	CC50 HK2, Mean [4] [µg/mL]	BMD MIC (K. pneumoniae; [5]) [µg/mL]	BMD MIC (E. coli; [6]) [µg/mL]	BMD MIC (A. baumannii; [7]) [µg/mL]	BMD MIC (P. aeruginosa; [8]) [µg/mL]	BMD MIC (S. aureus; [9]) [µg/mL]	further results
CC(C)[C@@H]1NC(=O)CNC(=O)[C@H](CC(N)=O)NC(=O)[C@H](CCCNC(=N)N)NC(=O)[C@H](Cc2ccc(O)cc2)NC(=O)[C@H](C(C)C)NC(=O)[C@@H]2CSSC[C@H](NC(=O)[C@H](C(C)C)NC(=O)[C@H](CCCNC(=N)N)NC1=O)C(=O)N[C@@H](Cc1ccc(O)cc1)C(=O)N[C@@H](CCCNC(=N)N)C(=O)N[C@@H](CCCNC(=N)N)C(=O)N[C@H](C(=O)N[C@@H](CC(N)=O)C(=O)O)CSSC[C@H](NC(=O)[C@H](Cc1ccccc1)NC(=O)CN)C(=O)N[C@@H](Cc1c[nH]c3ccccc13)C(=O)N[C@@H](CCCNC(=N)N)C(=O)N[C@@H](C)C(=O)N2 [NZ17230] (HELM PEPTIDE1{G.F.C.W.R.A.C.V.Y.R.N.G.V.R.V.C.Y.R.R.C.N}$PEPTIDE1,PEPTIDE1,3:R3-20:R3|PEPTIDE1,PEPTIDE1,7:R3-16:R3$$$V2.0)	0.25	64	0.5	0.25	64	>300	223 (≈ 86.5 µM)	223 (≈ 86.5 µM)	> 250	> 300	>300	>300	>258	>250						Heamolysis HC10 ([1]; red cells of human, 3 h): >300 µg/mL; MIC, MHB (E. coli ATCC 25922): 0.25 µg/mL (≈ 0.097 µM)
CC(C)[C@@H]1NC(=O)[C@H](Cc2ccc(O)cc2)NC(=O)[C@H](Cc2c[nH]c3ccccc23)NC(=O)[C@@H](NC(=O)[C@@H](N)Cc2ccccc2)CSSC[C@@H](C(=O)N[C@@H](CC(N)=O)C(=O)O)NC(=O)[C@H](CCCNC(=N)N)NC(=O)[C@H](CCCNC(=N)N)NC(=O)[C@H](Cc2ccc(O)cc2)NC(=O)[C@@H]2CSSC[C@H](NC1=O)C(=O)N[C@@H](C)C(=O)N[C@@H](CCCNC(=N)N)C(=O)N[C@@H](CCCNC(=N)N)C(=O)N[C@@H](CC(N)=O)C(=O)NCC(=O)N[C@@H](C)C(=O)N[C@@H](CCCNC(=N)N)C(=O)N[C@@H](C(C)C)C(=O)N2 [AB0015] (HELM PEPTIDE1{F.C.W.Y.V.C.A.R.R.N.G.A.R.V.C.Y.R.R.C.N}$PEPTIDE1,PEPTIDE1,2:R3-19:R3|PEPTIDE1,PEPTIDE1,6:R3-15:R3$$$V2.0)															2	0.5	0.5	1	>64	
CC(C)C[C@@H]1NC(=O)CNC(=O)[C@H](CC(N)=O)NC(=O)[C@H](CCCNC(=N)N)NC(=O)[C@H](CCCCN)NC(=O)[C@H](C)NC(=O)[C@@H]2CSSC[C@H](NC(=O)[C@H](C(C)C)NC(=O)[C@H](CCCNC(=N)N)NC1=O)C(=O)N[C@@H](Cc1ccc(O)cc1)C(=O)N[C@@H](CCCNC(=N)N)C(=O)N[C@@H](CCCNC(=N)N)C(=O)N[C@H](C(=O)N[C@@H](CC(N)=O)C(=O)O)CSSC[C@H](NC(=O)[C@H](Cc1ccccc1)NC(=O)CN)C(=O)N[C@@H](Cc1c[nH]c3ccccc13)C(=O)N[C@@H](Cc1ccc(O)cc1)C(=O)N[C@@H](C)C(=O)N2 [NZ17126] (HELM PEPTIDE1{G.F.C.W.Y.A.C.A.K.R.N.G.L.R.V.C.Y.R.R.C.N}$PEPTIDE1,PEPTIDE1,3:R3-20:R3|PEPTIDE1,PEPTIDE1,7:R3-16:R3$$$V2.0)	0.25	>64	1	0.25	32	232	>300	> 300	> 250	> 300	>300	>300	>254	>250						BMD MIC (E. coli): 0.125 µg/mL; CC50 HEK293 [2]: >300 µg/mL
CC(C)[C@@H]1NC(=O)[C@H](Cc2ccc(O)cc2)NC(=O)[C@H](Cc2c[nH]c3ccccc23)NC(=O)[C@@H](NC(=O)CN)CSSC[C@@H](C(=O)N[C@@H](CC(N)=O)C(=O)O)NC(=O)[C@H](CCCNC(=N)N)NC(=O)[C@H](CCCNC(=N)N)NC(=O)[C@H](Cc2ccc(O)cc2)NC(=O)[C@@H]2CSSC[C@H](NC1=O)C(=O)N[C@@H](C)C(=O)N[C@@H](CCCNC(=N)N)C(=O)N[C@@H](CCCNC(=N)N)C(=O)N[C@@H](CC(N)=O)C(=O)NCC(=O)N[C@@H](C)C(=O)N[C@@H](CCCNC(=N)N)C(=O)N[C@@H](C(C)C)C(=O)N2 [AB0016] (HELM PEPTIDE1{G.C.W.Y.V.C.A.R.R.N.G.A.R.V.C.Y.R.R.C.N}$PEPTIDE1,PEPTIDE1,2:R3-19:R3|PEPTIDE1,PEPTIDE1,6:R3-15:R3$$$V2.0)															2	1	1	1	>64	
